# Source: patent US8080529B2, “Macrolides with anti-inflammatory activity” (Glaxo Group Limited, priority 2005, dated 2011)
# Where two headings read alike, the source gives them in different places.
# Key:
# IL-8 = assay: Inhibition of IL-8 production by stimulated human peripheral blood leukocytes in vitro; type: cell-based; settings: for inhibition at 10 µM / inhibition at 50 µM: Homo sapiens, Leukocyte, read-out: Percentage of inhibition of IL-8 production
# Method in brief: (§1)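 Cytokines in supernatants measured by sandwich ELISA after overnight stimulation (2 μg/mL LPS, 1 μg/mL PMA or 120 μg/mL zymosan) of healthy-donor leukocytes pretreated 2 h with 10 or 50 μM compound. Percent inhibition calculated relative to stimulated cells lacking compound.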
# IL-1α = assay: Inhibition of IL-1 production by stimulated human peripheral blood leukocytes in vitro; type: cell-based; settings: for inhibition at 10 µM / inhibition at 50 µM: Homo sapiens, Leukocyte, read-out: Percentage of inhibition of IL-1α production
# IL-6 = assay: Inhibition of IL-6 production by stimulated human peripheral blood leukocytes in vitro; type: cell-based; settings: for inhibition at 10 µM / inhibition at 50 µM: Homo sapiens, Leukocyte, read-out: Percentage of inhibition of IL-6 production
# Method in brief: as §1
# TNF-α [1] = assay: Inhibition of TNF-α production by stimulated human peripheral blood leukocytes in vitro; type: cell-based; settings: for inhibition at 10 µM / inhibition at 50 µM: Homo sapiens, Leukocyte, read-out: Percentage of inhibition of TNF-α production
# Method in brief: as §1
# TNF-α [2] = assay: Lipopolysaccharide induced TNF-α production in Balb/cJ mice; type: in vivo; settings: 10 mg/kg intraperitoneally, 30 min before LPS; 90 min after LPS
# Description: Male Balb/cJ mice (Iffa Credo, France) weighing 25-33 g were randomly grouped (n=7 in test group, 7 in positive control group, 4 in negative control group). Test compounds, as well as vehicle [0.125% carboxymethyl-cellulose (Sigma, USA)], were administered to the mice intraperitoneally. Test compounds were administered at a dose of 10 mg/kg of body weight, in a volume of 10 mL/kg of body weight. Thirty minutes later, a sterile solution of lipopolysaccharide (LPS) (Sigma, USA) in saline was intraperitoneally administered at a concentration and volume of 25 μg/0.2 mL/mouse to each animal, except those in negative control. Ninety minutes following administration, all animals were sacrificed by puncturing a. carotis communis. The plasma concentration of TNF-α was determined by sandwich ELISA, using capture and detection antibodies (R&D, USA) according to manufacturer's recommendations. Results are presented in the following table as percent of inhibition of TNF-α production in comparison to the positive control (stimulated, but untreated animals).
# [3] = system: human peripheral blood mononuclear cells (PBMC); assay: Effects on human T-cell proliferation in vitro (3H-thymidine incorporation); type: cell-based; settings: for inhibition at 10 µM / inhibition at 50 µM: Homo sapiens, PBMC, read-out: Percentage of inhibition of proliferation of stimulated PBMC
# Description: The influence of the various test compounds at two different concentrations (50 μM and 10 μM) on cell proliferation of human peripheral blood mononuclear cells (PBMC) was assessed. […] The cells were pulsed with 1 μCi of ^3H-thymidine (Amersham, USA) per well during the last 18 h of the culture, and were harvested on the 96-well filter (Packard Bioscience, USA) using a multiple cell harvester (Packard, USA). The incorporation of ^3H-thymidine in activated cells were measured using TopCount NXT (Packard, USA). […] The positive control refers to LPS-, PMA- or zymosan-stimulated samples that were not treated with test compounds.
# A549 = assay: Cytotoxicity assay (MTT), A549 cell line; type: cell-based; settings: 24 h
# Method in brief: (§2)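 Viability was read as MTT-formazan absorbance at 490 nm after 0.5-2 h with reagent. This followed 24 h compound exposure (50 μM, 12.5 μM) at 37° C in RPM medium. Result expressed as OD490 treated over untreated cells ×100.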
# Hep G2 = assay: Cytotoxicity assay (MTT), Hep G2 cell line; type: cell-based; settings: 24 h
# Method in brief: as §2
smiles,measurement,setting,value
"CCC1OC(=O)C(C)C(OC2CC(C)(OC)C(OC(=O)CCN(CC)CC)C(C)O2)C(C)C(OC2OC(C)CC(N(C)C)C2O)C(C)(OC)CC(C)C(=O)NC(C)C(O)C1(C)O (stereo not drawn) [Example 8, 4″-O-(3-Diethylamino-propionyl)-6-O-methyl-9a-aza-9a-homoerythromycin A]",Percentage of inhibition of IL-8 production,"IL-8; 10 μM, LPS-stimulated PBL",38%
same,Percentage of inhibition of IL-8 production,"IL-8; 10 μM, PMA-stimulated PBL",40%
same,Percentage of inhibition of IL-8 production,"IL-8; 10 μM, zymosan-stimulated PBL",31%
same,Percentage of inhibition of IL-8 production,"IL-8; 50 μM, LPS-stimulated PBL",79%
same,Percentage of inhibition of IL-8 production,"IL-8; 50 μM, PMA-stimulated PBL",89%
same,Percentage of inhibition of IL-8 production,"IL-8; 50 μM, zymosan-stimulated PBL",88%
same,Percentage of inhibition of IL-1α production,"IL-1α; 10 μM, LPS-stimulated PBL",66%
same,Percentage of inhibition of IL-1α production,"IL-1α; 10 μM, PMA-stimulated PBL",71%
same,Percentage of inhibition of IL-1α production,"IL-1α; 10 μM, zymosan-stimulated PBL",86%
same,Percentage of inhibition of IL-1α production,"IL-1α; 50 μM, LPS-stimulated PBL",83%
same,Percentage of inhibition of IL-1α production,"IL-1α; 50 μM, PMA-stimulated PBL",86%
same,Percentage of inhibition of IL-1α production,"IL-1α; 50 μM, zymosan-stimulated PBL",94%
same,Percentage of inhibition of IL-6 production,"IL-6; 10 μM, LPS-stimulated PBL",16%
same,Percentage of inhibition of IL-6 production,"IL-6; 10 μM, PMA-stimulated PBL",24%
same,Percentage of inhibition of IL-6 production,"IL-6; 10 μM, zymosan-stimulated PBL",57%
same,Percentage of inhibition of IL-6 production,"IL-6; 50 μM, LPS-stimulated PBL",63%
same,Percentage of inhibition of IL-6 production,"IL-6; 50 μM, PMA-stimulated PBL",100%
same,Percentage of inhibition of IL-6 production,"IL-6; 50 μM, zymosan-stimulated PBL",80%
same,Percentage of inhibition of TNF-α production,"TNF-α [1]; 10 μM, LPS-stimulated PBL",51%
same,Percentage of inhibition of TNF-α production,"TNF-α [1]; 10 μM, PMA-stimulated PBL",46%
same,Percentage of inhibition of TNF-α production,"TNF-α [1]; 10 μM, zymosan-stimulated PBL",87%
same,Percentage of inhibition of TNF-α production,"TNF-α [1]; 50 μM, LPS-stimulated PBL",85%
same,Percentage of inhibition of TNF-α production,"TNF-α [1]; 50 μM, PMA-stimulated PBL",87%
same,Percentage of inhibition of TNF-α production,"TNF-α [1]; 50 μM, zymosan-stimulated PBL",92%
same,% inhibition of TNF-α production (plasma),TNF-α [2],93%
same,Percentage of inhibition of proliferation of stimulated PBMC,"[3]; PHA, 10 μM",96%
same,Percentage of inhibition of proliferation of stimulated PBMC,"[3]; PHA, 50 μM",100%
same,Percentage of inhibition of proliferation of stimulated PBMC,"[3]; PMA + iono., 10 μM",37%
same,Percentage of inhibition of proliferation of stimulated PBMC,"[3]; PMA + iono., 50 μM",99%
"CC[C@H]1OC(=O)[C@H](C)[C@@H](O[C@H]2C[C@@](C)(OC)[C@@H](OC(=O)CCN(CC)CC)[C@H](C)O2)[C@H](C)[C@@H](O[C@@H]2O[C@H](C)C[C@H](N(C)C)[C@H]2O)[C@](C)(OC)C[C@@H](C)C(=O)[C@H](C)[C@H]2NC(=O)O[C@@]21C [Example 9, 11,12-Carbamate-11,12-dideoxy-4″-O-(3-diethylamino-propionyl)-6-O-methyl-erythromycin A]",inhibition at 10 µM,"IL-8; 10 μM, LPS-stimulated PBL",18%
same,inhibition at 10 µM,"IL-8; 10 μM, PMA-stimulated PBL",0%
same,inhibition at 10 µM,"IL-8; 10 μM, zymosan-stimulated PBL",0%
same,inhibition at 50 µM,"IL-8; 50 μM, LPS-stimulated PBL",96%
same,inhibition at 50 µM,"IL-8; 50 μM, PMA-stimulated PBL",94%
same,inhibition at 50 µM,"IL-8; 50 μM, zymosan-stimulated PBL",91%
same,inhibition at 10 µM,"IL-1α; 10 μM, LPS-stimulated PBL",72%
same,inhibition at 10 µM,"IL-1α; 10 μM, PMA-stimulated PBL",69%
same,inhibition at 10 µM,"IL-1α; 10 μM, zymosan-stimulated PBL",82%
same,inhibition at 50 µM,"IL-1α; 50 μM, LPS-stimulated PBL",82%
same,inhibition at 50 µM,"IL-1α; 50 μM, PMA-stimulated PBL",72%
same,inhibition at 50 µM,"IL-1α; 50 μM, zymosan-stimulated PBL",0%
same,Percentage of inhibition of cell growth,A549; 12.5 μM,0%
same,Percentage of inhibition of cell growth,A549; 50 μM,0%
same,Percentage of inhibition of cell growth,Hep G2; 12.5 μM,4%
same,Percentage of inhibition of cell growth,Hep G2; 50 μM,15%
same,inhibition at 10 µM,"IL-6; 10 μM, LPS-stimulated PBL",22%
same,inhibition at 10 µM,"IL-6; 10 μM, PMA-stimulated PBL",30%
same,inhibition at 10 µM,"IL-6; 10 μM, zymosan-stimulated PBL",0%
same,inhibition at 50 µM,"IL-6; 50 μM, LPS-stimulated PBL",100%
same,inhibition at 50 µM,"IL-6; 50 μM, PMA-stimulated PBL",95%
same,inhibition at 50 µM,"IL-6; 50 μM, zymosan-stimulated PBL",100%
same,inhibition at 10 µM,"TNF-α [1]; 10 μM, LPS-stimulated PBL",73%
same,inhibition at 10 µM,"TNF-α [1]; 10 μM, PMA-stimulated PBL",93%
same,inhibition at 10 µM,"TNF-α [1]; 10 μM, zymosan-stimulated PBL",14%
same,inhibition at 50 µM,"TNF-α [1]; 50 μM, LPS-stimulated PBL",96%
same,inhibition at 50 µM,"TNF-α [1]; 50 μM, PMA-stimulated PBL",85%
same,inhibition at 50 µM,"TNF-α [1]; 50 μM, zymosan-stimulated PBL",72%
same,inhibition at 10 µM,"[3]; PHA, 10 μM",91%
same,inhibition at 50 µM,"[3]; PHA, 50 μM",100%
same,inhibition at 10 µM,"[3]; PMA + iono., 10 μM",17%
same,inhibition at 50 µM,"[3]; PMA + iono., 50 μM",100%
"CC[C@H]1OC(=O)[C@H](C)[C@@H](O[C@H]2C[C@@](C)(OC)[C@@H](OC(=O)CCN(CC)CC)[C@H](C)O2)[C@H](C)[C@@H](O[C@@H]2O[C@H](C)C[C@H](N(C)C)[C@H]2O)[C@](C)(OC)C[C@@H](C)NC(=O)[C@H](C)[C@@H](O)[C@]1(C)O [Example 3, 4″-O-(3-Diethylamino-Propionyl)-6-O-methyl-8a-aza-8a-homoerythromycin A]",inhibition at 10 µM,"IL-8; 10 μM, LPS-stimulated PBL",48%
same,inhibition at 10 µM,"IL-8; 10 μM, PMA-stimulated PBL",30%
same,inhibition at 10 µM,"IL-8; 10 μM, zymosan-stimulated PBL",32%
same,inhibition at 50 µM,"IL-8; 50 μM, LPS-stimulated PBL",71%
same,inhibition at 50 µM,"IL-8; 50 μM, PMA-stimulated PBL",22%
same,inhibition at 50 µM,"IL-8; 50 μM, zymosan-stimulated PBL",16%
same,inhibition at 10 µM,"IL-1α; 10 μM, LPS-stimulated PBL",87%
same,inhibition at 10 µM,"IL-1α; 10 μM, PMA-stimulated PBL",73%
same,inhibition at 10 µM,"IL-1α; 10 μM, zymosan-stimulated PBL",88%
same,inhibition at 50 µM,"IL-1α; 50 μM, LPS-stimulated PBL",86%
same,inhibition at 50 µM,"IL-1α; 50 μM, PMA-stimulated PBL",68%
same,inhibition at 50 µM,"IL-1α; 50 μM, zymosan-stimulated PBL",91%
same,Percentage of inhibition of cell growth,A549; 12.5 μM,0%
same,Percentage of inhibition of cell growth,A549; 50 μM,0%
same,Percentage of inhibition of cell growth,Hep G2; 12.5 μM,0%
same,Percentage of inhibition of cell growth,Hep G2; 50 μM,0%
same,inhibition at 10 µM,"IL-6; 10 μM, LPS-stimulated PBL",56%
same,inhibition at 10 µM,"IL-6; 10 μM, PMA-stimulated PBL",60%
same,inhibition at 10 µM,"IL-6; 10 μM, zymosan-stimulated PBL",44%
same,inhibition at 50 µM,"IL-6; 50 μM, LPS-stimulated PBL",78%
same,inhibition at 50 µM,"IL-6; 50 μM, PMA-stimulated PBL",66%
same,inhibition at 50 µM,"IL-6; 50 μM, zymosan-stimulated PBL",74%
same,inhibition at 10 µM,"TNF-α [1]; 10 μM, LPS-stimulated PBL",72%
same,inhibition at 10 µM,"TNF-α [1]; 10 μM, PMA-stimulated PBL",91%
same,inhibition at 10 µM,"TNF-α [1]; 10 μM, zymosan-stimulated PBL",76%
same,inhibition at 50 µM,"TNF-α [1]; 50 μM, LPS-stimulated PBL",81%
same,inhibition at 50 µM,"TNF-α [1]; 50 μM, PMA-stimulated PBL",83%
same,inhibition at 50 µM,"TNF-α [1]; 50 μM, zymosan-stimulated PBL",96%
same,inhibition at 10 µM,"[3]; PHA, 10 μM",2%
same,inhibition at 50 µM,"[3]; PHA, 50 μM",75%
same,inhibition at 10 µM,"[3]; PMA + iono., 10 μM",17%
same,inhibition at 50 µM,"[3]; PMA + iono., 50 μM",81%
